Assays:
[1] = Hygroscopicity (ability to absorb water/moisture from the air); assay type: physicochemical; details: normal, atmospheric conditions
From the text: One of skill in the art would readily be able to measure the hygroscopicity of Form II using techniques known in the art including, without limitation, dynamic vapor sorption (DVS) at relative humidities ranging from 0 to 100%. This decreased hygroscopic property of Form II thereby permits longer shelf life and storage of the solid compound in comparison to Form I.

[2] = Solubility in solvent at room temperature, centrifuged after 24 hours, supernatant assayed; assay type: physicochemical
Experimental: In another embodiment, the solvent is 2% Tween® 80 reagent in water, wherein Tween® 80 is a polyoxyethylene (20) sorbitan monooleate. One of skill in the art would readily be able to measure the solubility of Form II using techniques known in the art. Typically, the solubility was measured by adding Form II to a solvent at room temperature, centrifuging the solution after 24 hours, and assaying the supernatant. This increased solubility is observed when Form II is immersed in water.
In this example, the solubility of polymorph Form II of 4-(2-(4,4-dimethyl-2-oxooxazolidin-3-yl)thiazol-4-yl)benzonitrile in water is measured.

[3] = target: T1, progesterone receptor (PR) (Homo sapiens, UniProt P06401); test: T47D alkaline phosphatase activity assay to identify progestins or antiprogestins; assay type: cell-based; details: T47D cells
T1 construct: in live, intact (whole) cells using the human breast carcinoma T47D cell line; endogenous in cells; host or cells: T47D human breast carcinoma cells
T1 sequence (P06401 1-933): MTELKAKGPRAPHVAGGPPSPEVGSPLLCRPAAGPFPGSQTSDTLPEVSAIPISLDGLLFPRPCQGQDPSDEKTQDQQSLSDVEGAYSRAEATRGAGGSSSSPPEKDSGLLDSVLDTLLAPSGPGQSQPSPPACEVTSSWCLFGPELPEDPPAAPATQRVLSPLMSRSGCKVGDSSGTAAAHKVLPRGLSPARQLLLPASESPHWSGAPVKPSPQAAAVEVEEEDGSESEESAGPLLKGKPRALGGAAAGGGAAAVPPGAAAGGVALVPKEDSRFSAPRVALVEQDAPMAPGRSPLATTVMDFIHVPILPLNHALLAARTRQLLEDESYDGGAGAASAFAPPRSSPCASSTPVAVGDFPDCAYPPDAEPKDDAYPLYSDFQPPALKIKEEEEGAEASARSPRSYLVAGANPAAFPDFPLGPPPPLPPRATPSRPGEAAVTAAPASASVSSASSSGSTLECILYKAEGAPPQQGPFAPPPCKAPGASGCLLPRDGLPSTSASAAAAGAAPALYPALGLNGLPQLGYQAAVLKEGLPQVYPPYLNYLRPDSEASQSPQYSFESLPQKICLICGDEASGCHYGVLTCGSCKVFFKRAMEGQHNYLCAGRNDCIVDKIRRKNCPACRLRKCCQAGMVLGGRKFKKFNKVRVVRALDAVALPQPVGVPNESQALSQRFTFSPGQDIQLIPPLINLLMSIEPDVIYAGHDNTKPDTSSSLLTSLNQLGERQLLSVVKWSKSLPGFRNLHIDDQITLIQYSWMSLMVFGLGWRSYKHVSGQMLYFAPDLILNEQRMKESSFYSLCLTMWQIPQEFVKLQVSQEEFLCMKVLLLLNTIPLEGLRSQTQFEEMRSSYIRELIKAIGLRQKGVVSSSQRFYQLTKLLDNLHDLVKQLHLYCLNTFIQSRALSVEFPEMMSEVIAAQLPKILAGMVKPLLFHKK
From the text: (§1) The compound 4-(2-(4,4-dimethyl-2-oxooxazolidin-3-yl)thiazol-4-yl)benzonitrile has shown activity for modulating PR activity in assays to identify progestins or antiprogestins by (a) determining effect on alkaline phosphatase activity in T47D cells or (b) evaluating the progesterone receptor (PR) binding activity in live, intact (whole) cells using the human breast carcinoma T47D cell line and ^3H-progesterone as the labeled ligand (data presented in Table below).

[4] = target: T1, progesterone receptor (PR); test: PR whole cell binding in T47D cells with 3H-progesterone as labeled ligand; details: live, intact T47D cells; 3H-progesterone labeled ligand
From the text: as §1

Hygroscopicity compared with Form I [1] | Solubility compared with Form I ([2]; solvents such as water and hydrophilic non-ionic surfactants (2% Tween 80 in water), room temperature, 24 hours) | Solubility in water relative to Form I ([2]; water) [times] | IC50 [3] [nM] | Ki [4] [nM] | Structure (SMILES)
less hygroscopic than Form I | more soluble | 4 | – | – | CC1(C)COC(=O)N1c1nc(-c2ccc(C#N)cc2)cs1 [Form II, 4-(2-(4,4-dimethyl-2-oxooxazolidin-3-yl)thiazol-4-yl)benzonitrile]
– | – | – | 3.1 | 4.9 | CC1(C)COC(=O)N1c1nc(-c2ccc(C#N)cc2)cs1 [4-(2-(4,4-dimethyl-2-oxooxazolidin-3-yl)thiazol-4-yl)benzonitrile]
